Source: patent publication US7632783B2 (priority 2004, dated 2009)

What was measured:
[1] = tested on: rice blast (Pyricularia oryzae); type: in vivo; settings: potted rice (variety Karakaze), spraying liquid 300 ppm after spore inoculation, observed 7 days after inoculation, levels 0 to 3
[2] = tested on: gray mold (Botrytis cinerea); test: Tomato gray mold control test (preventive effects); type: in vivo; settings: potted tomato (giant Fukuju variety), spraying liquid 300 ppm before spore inoculation, investigated 2 days after inoculation, levels 0 to 3
Experimental: Bulk drug was dissolved in a mixed solution of dimethylsulfoxide and methanol (volume ratio: 7/3), and spraying liquids containing 300 ppm of compounds of the present invention were uniformly sprayed onto potted test plants (tomato: giant Fukuju variety) in the second to third leaf stage. […], a suspension of pathogen spores were inoculated by spraying onto the pots in an inoculation room at a room temperature of 20 to 23° C. to promote the onset of disease. The degree of disease onset was investigated 2 days after inoculation. The test was carried out in duplicate.
Furthermore, the degree of disease onset was evaluated to one of four levels from 0 to 3 according to the criteria below by macroscopically observing the degree of disease onset of the test plants.
1: Degree of disease onset less than 40% of the untreated area
2: Degree of disease onset 40% to less than 80% of the untreated area
3: Degree of disease onset 80% or more

CC1CCC2(Cc3ccccc3C(c3cnc4ccccc4c3)=N2)C1 (stereo not shown) [Example 101, 1′-quinolin-3-yl-4′H-spiro[(3-methylcyclopentane)-1,3′-isoquinoline]]
degree of disease onset [1]: 0

CC1(C)Cc2c(cccc2-c2ccsc2)C(c2cnc3ccccc3c2)=N1 [Example 33, 3-[5-(3-thienyl)-3,3-dimethyl-3,4-dihydroisoquinolin-1-yl]quinoline]
degree of disease onset [1]: 0

CC1c2c(F)cccc2C(c2cnc3ccccc3c2)=NC1(C)C (stereo not shown) [Example 120, 3-(5-fluoro-3,3,4-trimethyl-3,4-dihydroisoquinolin-1-yl)quinoline]
degree of disease onset [2]: 0

CC1(C)N=C(c2cnc3ccccc3c2)c2cccc(Cl)c2C1(C)C [Example 123, 3-(5-chloro-3,3,4,4-tetramethyl-3,4-dihydroisoquinolin-1-yl)quinoline]
degree of disease onset [2]: 0

CCC1(C)Cc2ccccc2C(c2cnc3ccccc3c2)=N1 (stereo not shown) [Example 55, 3-(3-ethyl-3-methyl-3,4-dihydroisoquinolin-1-yl)quinoline]
degree of disease onset [1]: 0

Cc1cccc2c1CC(C)(C)N=C2c1cnc2ccccc2c1 [Example 26, 3-(3,3,5-trimethyl-3,4-dihydroisoquinolin-1-yl)quinoline]
degree of disease onset [1]: 0

c1ccc2c(c1)CC1(CCCC1)N=C2c1cnc2ccccc2c1 [Example 80, 1′-quinolin-3-yl-4′H-spiro[cyclopentane-1,3′-isoquinoline]]
degree of disease onset [1]: 0

Cc1cccc2cc(C3=NC(C)(C)Cc4ccccc43)cnc12 [Example 9, 3-(3,3-dimethyl-3,4-dihydroisoquinolin-1-yl)-8-methylquinoline]
degree of disease onset [1]: 0

C=C1c2c(F)cccc2C(c2cnc3ccccc3c2)=NC1(C)C [Example 175, 3-(5-fluoro-3,3-dimethyl-4-methylene-3,4-dihydroisoquinolin-1-yl)quinoline]
degree of disease onset [2]: 0

CC1(C)c2ccc(F)cc2C(c2cnc3ccccc3c2)=[N+]([O-])C1(C)C [Example 210, 3-(7-fluoro-3,3,4,4-tetramethyl-2-oxide-3,4-dihydroisoquinolin-1-yl)quinoline]
degree of disease onset [1]: 0

CC(=NOc1ccccc1)c1cccc2c1CC(C)(C)N=C2c1cnc2ccccc2c1 [Example 44, 1-(3,3-dimethyl-1-quinolin-3-yl-3,4-dihydroisoquinolin-5-yl)ethanone=O-phenyloxime]
degree of disease onset [2]: 0

CC1c2ccccc2C(c2cnc3ccccc3c2)=[N+]([O-])C1(C)C (stereo not shown) [Example 206, 3-(3,3,4-trimethyl-2-oxide-3,4-dihydroisoquinolin-1-yl)quinoline]
degree of disease onset [1]: 0

CC1c2c(Cl)cccc2C(c2cnc3ccccc3c2)=NC1(C)C (stereo not shown) [Example 121, 3-(5-chloro-3,3,4-trimethyl-3,4-dihydroisoquinolin-1-yl)quinoline]
degree of disease onset [2]: 0

CC(C)CCC1(C)Cc2ccccc2C(c2cnc3ccccc3c2)=N1 (stereo not shown) [Example 62, 3-(3-isopentyl-3-methyl-3,4-dihydroisoquinolin-1-yl)quinoline]
degree of disease onset [1]: 0

c1ccc2c(c1)C(c1cnc3ccccc3c1)=NCC21CCC1 [Example 171, 1′-quinolin-3-yl-4′H-spiro[cyclobutane-1,4′-isoquinoline]]
degree of disease onset [1]: 0

CCON=C(C)c1cccc2c1CC(C)(C)N=C2c1cnc2ccccc2c1 [Example 38, 1-(3,3-dimethyl-1-quinolin-3-yl-3,4-dihydroisoquinolin-5-yl)ethanone=O-ethyloxime]
degree of disease onset [1]: 0

CC1(C)N=C(c2cnc3ccccc3c2)c2cccc(F)c2C1(C)O (stereo not shown) [Example 181, 3-(5-fluoro-4-hydroxy-3,3,4-trimethyl-3,4-dihydroisoquinolin-1-yl)quinoline]
degree of disease onset [1]: 0

COC1(C)c2c(F)cccc2C(c2cnc3ccccc3c2)=NC1(C)C (stereo not shown) [Example 183, 3-(5-fluoro-4-methoxy-3,3,4-trimethyl-3,4-dihydroisoquinolin-1-yl)quinoline]
degree of disease onset [1]: 0

CC1(C)Cc2c(cccc2C(F)F)C(c2cnc3ccccc3c2)=N1 [Example 132, 3-(5-difluoromethyl-3,3-dimethyl-3,4-dihydroisoquinolin-1-yl)quinoline]
degree of disease onset [1]: 0

CCC1(CC)Cc2ccccc2C(c2cnc3ccccc3c2)=N1 [Example 63, 3-(3,3-diethyl-3,4-dihydroisoquinolin-1-yl)quinoline]
degree of disease onset [1]: 0

CC1(C)Cc2c(F)cccc2C(c2cnc3ccccc3c2)=N1.O=[N+]([O-])O [Example 105, 3-(5-fluoro-3,3-dimethyl-3,4-dihydroisoquinolin-1-yl)quinoline nitrate]
degree of disease onset [1]: 0

Fc1cccc2c1CC1(CCCC1)N=C2c1cnc2ccccc2c1 [Example 81, 5′-fluoro-1′-quinolin-3-yl-4′H-spiro[cyclopentane-1,3′-isoquinoline]]
degree of disease onset [1]: 0

CC1(C)Cc2ccccc2C(c2cnc3ccccc3c2)=N1 [Example 6, 3-(3,3-dimethyl-3,4-dihydroisoquinolin-1-yl)quinoline]
degree of disease onset [1]: 0

CC1(C)N=C(c2cnc3ccccc3c2)c2cccc(F)c2C1(C)C.CS(=O)(=O)O [Example 159, 3-(5-fluoro-3,3,4,4-tetramethyl-3,4-dihydroisoquinolin-1-yl)quinoline methanesulfonate]
degree of disease onset [2]: 0

CC1(C)Cc2ccccc2C(c2cnc3c(F)cccc3c2)=N1 [Example 7, 3-(3,3-dimethyl-3,4-dihydroisoquinolin-1-yl)-8-fluoroquinoline]
degree of disease onset [1]: 0

CC1(C)Cc2c(F)cccc2C(c2cnc3ccccc3c2)=N1.O=C(O)C(=O)O [Example 106, 3-(5-fluoro-3,3-dimethyl-3,4-dihydroisoquinolin-1-yl)quinoline oxalate]
degree of disease onset [1]: 0

CC1(C)Cc2c(F)cccc2C(c2cnc3ccccc3c2)=[N+]1[O-] [Example 208, 3-(5-fluoro-3,3-dimethyl-2-oxide-3,4-dihydroisoquinolin-1-yl)quinoline]
degree of disease onset [1]: 0

FC(F)(F)C1(c2ccccc2)Cc2ccccc2C(c2cnc3ccccc3c2)=N1 (stereo not shown) [Example 74, 3-(3-trifluoromethyl-3-phenyl-3,4-dihydroisoquinolin-1-yl)quinoline]
degree of disease onset [1]: 0

CC1(C)N=C(c2cnc3ccccc3c2)c2ccc(Cl)cc2C1(C)C [Example 154, 3-(6-chloro-3,3,4,4-tetramethyl-3,4-dihydroisoquinolin-1-yl)quinoline]
degree of disease onset [2]: 0

Clc1ccc2c(c1)CC1(CCCCC1)N=C2c1cnc2ccccc2c1 [Example 92, 6′-chloro-1′-quinolin-3-yl-4′H-spiro[cyclohexane-1,3′-isoquinoline]]
degree of disease onset [2]: 0

CC1(C)Cc2c(F)cccc2C(c2cnc3ccccc3c2)=N1.O=S(=O)(O)O [Example 104, 3-(5-fluoro-3,3-dimethyl-3,4-dihydroisoquinolin-1-yl)quinoline sulfate]
degree of disease onset [1]: 0

CC1(C)Cc2c(cccc2-c2cccs2)C(c2cnc3ccccc3c2)=N1 [Example 32, 3-[5-(2-thienyl)-3,3-dimethyl-3,4-dihydroisoquinolin-1-yl]quinoline]
degree of disease onset [1]: 0

CC(C)C1(C)Cc2ccccc2C(c2cnc3ccccc3c2)=N1 (stereo not shown) [Example 59, 3-(3-isopropyl-3-methyl-3,4-dihydroisoquinolin-1-yl)quinoline]
degree of disease onset [1]: 0

CON=C(C)c1cccc2c1CC(C)(C)N=C2c1cnc2ccccc2c1 [Example 36, 1-(3,3-dimethyl-1-quinolin-3-yl-3,4-dihydroisoquinolin-5-yl)ethanone=O-methyloxime]
degree of disease onset [1]: 0

CCCC1(C)Cc2ccccc2C(c2cnc3ccccc3c2)=N1 (stereo not shown) [Example 57, 3-(3-methyl-3-propyl-3,4-dihydroisoquinolin-1-yl)quinoline]
degree of disease onset [1]: 0

Cc1cccc2c1C(C)(C)C(C)(C)N=C2c1cnc2ccccc2c1 [Example 160, 3-(3,3,4,4,5-pentamethyl-3,4-dihydroisoquinolin-1-yl)quinoline]
degree of disease onset [1]: 0

CON=Cc1cccc2c1CC(C)(C)N=C2c1cnc2ccccc2c1 [Example 117, 1-(3,3-dimethyl-1-quinolin-3-yl-3,4-dihydroisoquinolin-5-yl)methanone=O-methyloxime]
degree of disease onset [1]: 0

CC1c2ccccc2C(c2cnc3ccccc3c2)=NC1(C)C (stereo not shown) [Example 119, 3-(3,3,4-trimethyl-3,4-dihydroisoquinolin-1-yl)quinoline]
degree of disease onset [1]: 0

Fc1ccc2c(c1)CC1(CCCC1)N=C2c1cnc2ccccc2c1 [Example 82, 6′-fluoro-1′-quinolin-3-yl-4′H-spiro[cyclopentane-1,3′-isoquinoline]]
degree of disease onset [1]: 0

CC(C)CC1(C)Cc2ccccc2C(c2cnc3ccccc3c2)=N1 (stereo not shown) [Example 60, 3-(3-isobutyl-3-methyl-3,4-dihydroisoquinolin-1-yl)quinoline]
degree of disease onset [1]: 0

CC1(C)N=C(c2cnc3ccccc3c2)c2ccc(F)cc2C1(C)C [Example 150, 3-(6-fluoro-3,3,4,4-tetramethyl-3,4-dihydroisoquinolin-1-yl)quinoline]
degree of disease onset [1]: 0

5-fluoro-3,3,4,4-tetramethyl-8b-(1-oxidequinoline-3-yl)-4,8b-dihydro-3H-oxazileno[3,2-a]isoquinoline [Example 198]
degree of disease onset [1]: 0

CC1(C)Cc2cc(F)ccc2C(c2cnc3ccccc3c2)=N1 [Example 16, 3-(6-fluoro-3,3-dimethyl-3,4-dihydroisoquinolin-1-yl)quinoline]
degree of disease onset [1]: 0
